Reference: patent US20240327458A1, “MACROCYCLIC PEPTIDOMIMETIC PROTEASE INHIBITOR AND USE THEREOF” (TENCENT TECHNOLOGY (SHENZHEN) COMPANY LIMITED, priority 2022, published 2024)
Read-outs that look alike come from different tables or passages of the source.

Columns and labels:
[1] = rcm bond, Grubbs 2nd generation catalyst, dichloromethane, 25.0 °C
M^pro = M^pro (Severe acute respiratory syndrome coronavirus 2 (2019-nCoV) (SARS-CoV-2), UniProt P0DTD1); conditions: read-out: M^pro IC50; GST-AVLQ-3Clpro-GP-6His; substrate MCA-AVLQSGFR-Lys(Dnp)-Lys-NH2; Ex320/Em405
Description: An objective of this experiment is to detect the in vitro inhibitory activity against M^pro of the compound of the present disclosure.
Experimental steps and methods: • 1. Prepare a 1× buffer solution (modified Tris buffer solution). • 2. Transfer a to-be-tested compound to the assay plate with Echo's 100% DMSO solution to a final DMSO content of 0.5%. • 3. Prepare a mixed protein solution: Add GST-AVLQ-3Clpro-GP-6His in a 1× assay buffer solution to support the mixed protein solution. • 4. […] Add 10 μL of 2× mixed protein solution in the assay plate, centrifuge for 30s, shake for 30s, and incubate the solution at room temperature for 15 min. • 6. Add 10 μL of 2× mixed substrate solution in the assay plate, centrifuge for 30, and shake for 30s. • 7. Read the data dynamically on Synergy (Ex320/Em405).

SMILES: COC(=O)[C@@H]1CCC(=O)N(C)CCCC=CCC[C@H](NC(=O)OC(C)(C)C)C(=O)N2C[C@H]3[C@@H]([C@H]2C(=O)N1)C3(C)C
- ring closure, yield of all isomers ([1]; from C=CCCCN(C)C(=O)CC[C@H](NC(=O)[C@@H]1[C@@H]2[C@H](CN1C(=O)[C@H](CCC=C)NC(=O)OC(C)(C)C)C2(C)C)C(=O)OC, 5.1 mM, 16.0 h): 94%

SMILES: COC(=O)[C@@H]1CCC(=O)NCCCC=CCC[C@H](NC(=O)OC(C)(C)C)C(=O)N2C[C@H]3[C@@H]([C@H]2C(=O)N1)C3(C)C
- ring closure, yield of all isomers ([1]; from C=CCCCNC(=O)CC[C@H](NC(=O)[C@@H]1[C@@H]2[C@H](CN1C(=O)[C@H](CCC=C)NC(=O)OC(C)(C)C)C2(C)C)C(=O)OC, 1.73 mM, 16.0 h): 86%

SMILES: COC(=O)[C@@H]1CCC(=O)NCCCC=CC[C@H](NC(=O)OC(C)(C)C)C(=O)N2C[C@H]3[C@@H]([C@H]2C(=O)N1)C3(C)C
- ring closure, yield of all isomers ([1]; from C=CCCCNC(=O)CC[C@H](NC(=O)[C@@H]1[C@@H]2[C@H](CN1C(=O)[C@H](CC=C)NC(=O)OC(C)(C)C)C2(C)C)C(=O)OC, 3.53 mM, 16.0 h): 100%

SMILES: CC1(C)[C@@H]2[C@H]3C(=O)N[C@H](C#N)CCC(=O)NCCCCCCC[C@H](NC(=O)C(F)(F)F)C(=O)N3C[C@@H]21 [Compound 1, N-((3S, 15S, 18aS, 19aR, 19bS)-3-cyano-19,19-dimethyl-1,6,16-trioxyeicosanylhydro-2H-cyclopropyl[3,4]pyrrole[1,2-a][1,4, 9]triazocyclooctadecyl-15-yl)-2,2,2-trifluoroacetamide]
- IC50 (M^pro): 254 nM

SMILES: CC1(C)[C@@H]2[C@H]3C(=O)N[C@H](C#N)CCC(=O)NCCCCCC[C@H](NC(=O)C(F)(F)F)C(=O)N3C[C@@H]21 [Compound 7, N-((3S, 14S, 17aS, 18aR, 18bS)-3-cyano-18,18-dimethyl-1,6,15-trioxyeicosanylhydrocyclopropyl[3,4]pyrrole[1,2-a][1,4,9]triazacycloheptanedioic acid-14-yl)-2,2,2-trifluoroacetamide]
- IC50 (M^pro): 16 nM

SMILES: COC(=O)[C@@H]1CCC(=O)NCCCC=CC[C@H](NC(=O)OC(C)(C)C)C(=O)N2C[C@@H]3CCC[C@@H]3[C@H]2C(=O)N1
- ring closure, yield of all isomers ([1]; from C=CCCCNC(=O)CC[C@H](NC(=O)[C@@H]1[C@H]2CCC[C@H]2CN1C(=O)[C@H](CC=C)NC(=O)OC(C)(C)C)C(=O)OC, 3.75 mM, 16.0 h): 94%

SMILES: COC(=O)[C@@H]1CCC(=O)NCCC=Cc2cccc(c2)[C@H](NC(=O)OC(C)(C)C)C(=O)N2C[C@H]3[C@@H]([C@H]2C(=O)N1)C3(C)C
- ring closure, yield of all isomers ([1]; from C=CCCNC(=O)CC[C@H](NC(=O)[C@@H]1[C@@H]2[C@H](CN1C(=O)[C@@H](NC(=O)OC(C)(C)C)c1cccc(C=C)c1)C2(C)C)C(=O)OC, 3.55 mM, 16.0 h): 20%

SMILES: CC1(C)[C@@H]2[C@H]3C(=O)N[C@H](C#N)CCC(=O)NCCC/C=C/CCC[C@H](NC(=O)C(F)(F)F)C(=O)N3C[C@@H]21 [Compound 8b, N-((3S, 16S, 19aS, 20aR, 20bS, Z/E)-3-cyano-20,20-dimethyl-1,6,17-trioxo-1,2,3,4,5,6,7,8,9,10,13,14,15,16,17,19,19a,20,20a,20b-eicosanylhydrocyclopropyl[3,4]pyrrole[1,2-a][1,4,9]triazacyclonon-16-yl)-2,2,2-trifluoroacetamide]
- IC50 (M^pro): 138 nM

SMILES: CC1(C)[C@@H]2[C@H]3C(=O)N[C@H](C#N)CCC(=O)NCCCCCCCC[C@H](NC(=O)C(F)(F)F)C(=O)N3C[C@@H]21 [Compound 6, N-((3S, 16S, 19aS, 20aR, 20bS)-3-cyano-20,20-dimethyl-1,6,17-trioxydocosanylhydrocyclopropa[3,4]pyrrole[1,2-a][1,4,9]triazacyclononanedioic acid-16-yl)-2,2,2-trifluoroacetamide]
- IC50 (M^pro): 379 nM

SMILES: COC(=O)[C@@H]1CCC(=O)NCCCC=CCCC[C@H](NC(=O)OC(C)(C)C)C(=O)N2C[C@H]3[C@@H]([C@H]2C(=O)N1)C3(C)C
- ring closure, yield of all isomers ([1]; from C=CCCCNC(=O)CC[C@H](NC(=O)[C@@H]1[C@@H]2[C@H](CN1C(=O)[C@H](CCCC=C)NC(=O)OC(C)(C)C)C2(C)C)C(=O)OC, 4.53 mM, 2.0 h): 60%

SMILES: CC1(C)[C@@H]2[C@H]3C(=O)N[C@H](C#N)CCC(=O)NCCC/C=C\CC[C@H](NC(=O)C(F)(F)F)C(=O)N3C[C@@H]21 [Compound 4, N-((3S, 15S, 18aS, 19aR, 19bS, Z)-3-cyano-19,19-dimethyl-1,6,16-trioxo-1,3,4,5,6,7,8,9,10,13,14,15,16,18,18a,19,19a,19b-octadecahydro-2H-cyclopropane[3,4]pyrrole[1,2-a][1,4,9]triazacyclooctadecene-15-yl)-2,2,2-trifluoroacetamide]
- IC50 (M^pro): 411 nM
